From patent US20090074844A1, “TRENADERMAL ABSORPTION PREPARATION” (ONO PHARMACEUTICAL CO., LTD., priority 2005, published 2009)

Assays:
[1] = In vitro skin permeability test (1), Franz type cell; assay type: in vitro ADME, rat; details: for cumulative permeation quantity until 24 hours: patch (pharmaceutical preparation 1A, 0.2 mg/cm^2) on rat abdominal skin, determined as compound B or PGE1, FIG. 1
Experimental: The hair-removed skin extracted from the abdominal region of each of male Wister rats (7 weeks of age, Wister/Slc, n=3) was attached to a Franz type cell (1.1 cm in diameter). The aforementioned pharmaceutical preparation 1A prepared in Example 1 was applied to the stratum corneum of the hair-removed skin extracted from the abdominal region. Hanks' buffer (HBSS) (Sigma, pH 7.4) was applied to the dermal layer side cell. HBSS (200 μL) was periodically collected from the dermal layer side cell, and compound B as the active form of compound A or PGE1 was determined by the HPLC method under the following conditions. Cumulative permeation quantities until 24 hours were determined to calculate average values.
Compound A (Active Form: Compound B)
Column: YMC-Pack ODS A-302 (4.6 mm I.d., 150 mm),
Column temperature: 50° C.,
Moving bed: 0.1% phosphoric acid aqueous solution: acetonitrile=7:3,
Detection wavelength: 220 nm,
Internal standard: ethyl p-hydroxybenzoate.
Column temperature: 30° C.,
Moving bed: 0.02 M potassium hydrogenphosphate aqueous solution:acetonitrile=3:2,
Detection wavelength: 205 nm,
Internal standard: n-propyl p-hydroxybenzoate.
FIG. 1 is a result of the in vitro skin permeability test (1) in Test Example (1) of Biological Examples. The cumulative permeation quantity of compound A represents a value calculated by converting the detected value of compound B into compound A.

[2] = Drug permeability test using human skin, Franz type cell, LC/MS/MS; assay type: in vitro ADME; details: preparation of Example 3 (70 μg/cm^2, oleyl alcohol), slope of cumulative permeation quantities, FIG. 4, n=3
Experimental: Drug permeability test using human skin Human skin purchased from Asterand (abdominal skin of a person, epidermal-dermal skin (no heat treatment), n=3) was attached to a Franz type cell (1.78 cm^2), and the pharmaceutical preparation produced in Example 3 was applied to the stratum corneum side. Physiological saline (8 ml) was applied to the dermal layer side cell. From the dermal layer side cell, 1 ml portion thereof was periodically collected, and the compound A and compound B were determined by LC/MS/MS method under the following conditions. Cumulative permeation quantities until 48 hours were determined to calculate average values.
LC/MS/MS Measuring Conditions (HPLC)
Measuring instrument: Perkin-Elmer Series 200 Micro-pumps and CTC […]
Flow rate: 300 μl/minute Injection quantity: 5 μl Running time: 4.5 minutes Retention time: compound A; until 3.45 minutes/compound B; until 3.25 minutes Mass spectrometry […]
Human skin permeability of compound A and compound B which is its active form was measured to calculate the cumulative permeation quantities, with the results shown in FIG. 4. Their skin permeation rates were calculated from the slope of cumulative permeation quantities in FIG. 4. […]
FIG. 4 is a result of a human skin permeability test which used the pharmaceutical preparations produced in Example 3. It represents cumulatively detected amounts of compound A and compound B.

Row | SMILES | cumulative permeation quantity until 24 hours ([1]; HBSS pH 7.4) | conversion of compound A into the active form, compound B, during permeation through the skin ([1]; patch preparation 1A on rat abdominal skin) | compound A in the dermal layer side cell ([1]; patch preparation 1A on rat abdominal skin, HBSS pH 7.4) | skin permeation rate [2] [μg/cm^2/hr]
1 | COCc1cccc(C[C@H](O)/C=C/[C@H]2[C@H](O)CC(=O)[C@@H]2CCSCCCC(=O)OC)c1 [compound A, methyl 4-{[2-((1R,2R,3R)-3-hydroxy-2-{(1E,3S)-3-hydroxy-4-[3-(methoxymethyl)phenyl]but-1-enyl}-5-oxocyclopentyl)ethyl]sulfanyl}butanoate] | high cumulative permeation quantity was obtained | completely converted | not detected | 0.16±0.04
2 | COCc1cccc(C[C@H](O)/C=C/[C@H]2[C@H](O)CC(=O)[C@@H]2CCSCCCC(=O)O)c1 [compound B, 4-{[2-((1R,2R,3R)-3-hydroxy-2-{(1E,3S)-3-hydroxy-4-[3-(methoxymethyl)phenyl]but-1-enyl}-5-oxocyclopentyl)ethyl]sulfanyl}butanoic acid] |  |  |  | 0.07±0.01
3 | CCCCC[C@H](O)/C=C/[C@H]1[C@H](O)CC(=O)[C@@H]1CCCCCCC(=O)O [PGE1, reference compound] | high cumulative permeation quantity was not obtained |  |  | 
